The first data set has as its target T1, plasmin (Homo sapiens, UniProt P00747).
T1 construct: Tissue plasminogen factor (tPA), which generates plasmin from plasminogen
Put plainly: In vitro plasmin stability assay. The note with it: isolated enzyme plasmin. In kind it is in vitro ADME. The procedure:
At selected time points during the incubation, the ligands were extracted from 80 μL of assay matrix by treatment with 80 μL of 50% acetonitrile (ACN). The samples were filtered and analysed by UPLC to determine the amount of ligand remaining. LC-MS analysis was performed to confirm ligand integrity and identify cleavage sites.
T1 sequence (P00747 581-810 limits assumed, species assumed): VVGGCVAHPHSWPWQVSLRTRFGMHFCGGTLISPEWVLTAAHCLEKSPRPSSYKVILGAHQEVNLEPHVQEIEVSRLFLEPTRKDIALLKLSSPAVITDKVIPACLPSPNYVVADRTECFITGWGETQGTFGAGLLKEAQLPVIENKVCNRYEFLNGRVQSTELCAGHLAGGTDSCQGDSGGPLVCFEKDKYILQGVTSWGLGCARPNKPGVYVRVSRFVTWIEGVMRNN
T1 sequence (P00747 97-580 partner limits assumed, species assumed): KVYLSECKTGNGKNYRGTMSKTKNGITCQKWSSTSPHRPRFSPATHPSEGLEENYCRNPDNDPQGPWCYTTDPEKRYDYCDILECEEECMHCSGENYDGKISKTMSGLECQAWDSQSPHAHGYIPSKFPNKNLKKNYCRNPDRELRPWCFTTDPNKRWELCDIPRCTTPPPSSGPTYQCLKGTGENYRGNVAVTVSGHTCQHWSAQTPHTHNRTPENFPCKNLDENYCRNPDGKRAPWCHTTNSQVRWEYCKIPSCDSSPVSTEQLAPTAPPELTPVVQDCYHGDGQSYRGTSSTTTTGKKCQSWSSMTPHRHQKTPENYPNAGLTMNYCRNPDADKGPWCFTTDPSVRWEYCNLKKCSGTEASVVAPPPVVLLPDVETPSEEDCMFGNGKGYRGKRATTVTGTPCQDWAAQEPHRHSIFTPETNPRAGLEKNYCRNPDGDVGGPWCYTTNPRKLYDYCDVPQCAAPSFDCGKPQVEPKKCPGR
Compound `CC(=O)N[C@@H](CCCNC(=N)N)C(=O)N[C@@H](CCCNC(=N)N)C(=O)N[C@@H](CCCNC(=N)N)C(=O)N[C@@H](CCCNC(=N)N)C(=O)N[C@@H](CCCNC(=N)N)C(=O)N[C@@H](CCCNC(=N)N)C(=O)N[C@@H](CCCNC(=N)N)C(=O)N[C@@H](CCCNC(=N)N)C(=O)N[C@@H](CCCNC(=N)N)C(=O)N(CCOCCOCCC(=O)N[C@@H](CCCCN)C(=O)N[C@@H](CCC(=O)O)C(=O)N[C@H](C(=O)N[C@H](C(=O)N[C@H](C(=O)O)C(C)C)[C@@H](C)O)[C@@H](C)O)CCOCCOCCC(=O)N[C@@H](CCCCN)C(=O)N[C@@H](CCC(=O)O)C(=O)N[C@H](C(=O)N[C@H](C(=O)N[C@H](C(=O)O)C(C)C)[C@@H](C)O)[C@@H](C)O` [Compound 25] displayed a half-life at 100 μM of 19.2 ± 3.38 h.

In the case of `CC(=O)N[C@@H](CCCNC(=N)N)C(=O)N[C@@H](CCCNC(=N)N)C(=O)N[C@@H](CCCNC(=N)N)C(=O)N[C@@H](CCCNC(=N)N)C(=O)N[C@@H](CCCNC(=N)N)C(=O)N[C@@H](CCCNC(=N)N)C(=O)N[C@@H](CCCNC(=N)N)C(=O)N[C@@H](CCCNC(=N)N)C(=O)N[C@@H](CCCNC(=N)N)C(=O)N(CCOCCOCCC(=O)N[C@@H](CCCCN)C(=O)N[C@@H](CCC(=O)O)C(=O)N[C@H](C(=O)N[C@H](C(=O)N[C@H](C(=O)O)C(C)C)C(C)C)[C@@H](C)O)CCOCCOCCC(=O)N[C@@H](CCCCN)C(=O)N[C@@H](CCC(=O)O)C(=O)N[C@H](C(=O)N[C@H](C(=O)N[C@H](C(=O)O)C(C)C)C(C)C)[C@@H](C)O` [Compound 27], the half-life at 100 μM is 25.5 ± 9.63 h.

`CC(=O)N[C@@H](CCCNC(=N)N)C(=O)N[C@@H](CCCNC(=N)N)C(=O)N[C@@H](CCCNC(=N)N)C(=O)N[C@@H](CCCNC(=N)N)C(=O)N[C@@H](CCCNC(=N)N)C(=O)N[C@@H](CCCNC(=N)N)C(=O)N[C@@H](CCCNC(=N)N)C(=O)N[C@@H](CCCNC(=N)N)C(=O)N[C@@H](CCCNC(=N)N)C(=O)N(CCOCCOCCC(=O)N[C@@H](CCCCN)C(=O)N[C@@H](CCC(=O)O)C(=O)N[C@H](C(=O)N[C@@H](CCCNC(=N)N)C(=O)N[C@H](C(=O)O)C(C)C)[C@@H](C)O)CCOCCOCCC(=O)N[C@@H](CCCCN)C(=O)N[C@@H](CCC(=O)O)C(=O)N[C@H](C(=O)N[C@@H](CCCNC(=N)N)C(=O)N[C@H](C(=O)O)C(C)C)[C@@H](C)O` [Compound 29] showed a half-life at 100 μM of 16.7 ± 2.85 h.

As for `CC[C@H](C)[C@H](NC(=O)CCOCCOCCN(CCOCCOCCC(=O)N[C@H](C(=O)N[C@@H](CO)C(=O)N[C@H](C(=O)N[C@@H](CC(=O)O)C(=O)N[C@H](C(=O)O)C(C)C)[C@@H](C)O)[C@@H](C)CC)C(=O)[C@H](CCCNC(=N)N)NC(=O)[C@H](CCCNC(=N)N)NC(=O)[C@H](CCCNC(=N)N)NC(=O)[C@H](CCCNC(=N)N)NC(=O)[C@H](CCCNC(=N)N)NC(=O)[C@H](CCCNC(=N)N)NC(=O)[C@H](CCCNC(=N)N)NC(=O)[C@H](CCCNC(=N)N)NC(=O)[C@H](CCCNC(=N)N)NC(C)=O)C(=O)N[C@@H](CO)C(=O)N[C@H](C(=O)N[C@@H](CC(=O)O)C(=O)N[C@H](C(=O)O)C(C)C)[C@@H](C)O` [Compound 31], the half-life at 100 μM was 23.4 ± 2.07 h.

The compound `CC(=O)N[C@@H](CCCNC(=N)N)C(=O)N[C@@H](CCCNC(=N)N)C(=O)N[C@@H](CCCNC(=N)N)C(=O)N[C@@H](CCCNC(=N)N)C(=O)N[C@@H](CCCNC(=N)N)C(=O)N[C@@H](CCCNC(=N)N)C(=O)N[C@@H](CCCNC(=N)N)C(=O)N[C@@H](CCCNC(=N)N)C(=O)N[C@@H](CCCNC(=N)N)C(=O)N(CCOCCOCCC(=O)N[C@H](C(=O)N[C@@H](CCC(=O)O)C(=O)N[C@H](C(=O)N[C@H](C(=O)N[C@H](C(=O)O)C(C)C)C(C)C)[C@@H](C)O)C(C)C)CCOCCOCCC(=O)N[C@H](C(=O)N[C@@H](CCC(=O)O)C(=O)N[C@H](C(=O)N[C@H](C(=O)N[C@H](C(=O)O)C(C)C)C(C)C)[C@@H](C)O)C(C)C` [Compound 33] came in with a half-life at 100 μM of 7.98 ± 1.28 h.

`CC[C@H](C)[C@H](NC(=O)CCOCCOCCN(CCOCCOCCC(=O)N[C@H](C(=O)N[C@@H](CCC(=O)O)C(=O)N[C@H](C(=O)N[C@@H](CC(=O)O)C(=O)N[C@H](C(=O)O)C(C)C)[C@@H](C)O)[C@@H](C)CC)C(=O)[C@@H](CCCNC(=N)N)NC(=O)[C@H](CCCNC(=N)N)NC(=O)[C@@H](CCCCN)NC(=O)[C@H](CCCCN)NC(=O)[C@@H](CCCNC(=N)N)NC(=O)CNC(=O)[C@@H](CCCNC(=N)N)NC(=O)[C@H](CCCNC(=N)N)NC(=O)[C@@H](CCCNC(=N)N)NC(C)=O)C(=O)N[C@@H](CCC(=O)O)C(=O)N[C@H](C(=O)N[C@@H](CC(=O)O)C(=O)N[C@H](C(=O)O)C(C)C)[C@@H](C)O` [Compound 40] registered a half-life at 100 μM of 24 h.

In the case of `CC[C@H](C)[C@H](NC(=O)CCOCCOCCN(CCOCCOCCC(=O)N[C@H](C(=O)N[C@@H](CCC(=O)O)C(=O)N[C@H](C(=O)N[C@@H](CC(=O)O)C(=O)N[C@H](C(=O)O)C(C)C)[C@@H](C)O)[C@@H](C)CC)C(=O)[C@@H](CCCNC(=N)N)NC(=O)[C@@H](CCCNC(=N)N)NC(=O)[C@@H](CCCNC(=N)N)NC(=O)[C@@H](CCCNC(=N)N)NC(=O)[C@@H](CCCNC(=N)N)NC(=O)[C@@H](CCCNC(=N)N)NC(=O)[C@@H](CCCNC(=N)N)NC(=O)[C@@H](CCCNC(=N)N)NC(=O)[C@@H](CCCNC(=N)N)NC(C)=O)C(=O)N[C@@H](CCC(=O)O)C(=O)N[C@H](C(=O)N[C@@H](CC(=O)O)C(=O)N[C@H](C(=O)O)C(C)C)[C@@H](C)O` [Compound 44], the half-life at 100 μM was 24 h.

Regarding `CC[C@H](C)[C@H](NC(=O)CCOCCOCCN(CCOCCOCCC(=O)N[C@H](C(=O)N[C@@H](CCC(=O)O)C(=O)N[C@H](C(=O)N[C@@H](CC(=O)O)C(=O)N[C@H](C(=O)O)C(C)C)[C@@H](C)O)[C@@H](C)CC)C(=O)[C@H](CCCCN)NC(=O)[C@H](CCCCN)NC(=O)[C@H](Cc1c[nH]c2ccccc12)NC(=O)[C@H](CCCCN)NC(=O)[C@H](CCSC)NC(=O)[C@H](CCCNC(=N)N)NC(=O)[C@H](CCCNC(=N)N)NC(=O)[C@H](CC(N)=O)NC(=O)[C@H](CCC(N)=O)NC(=O)[C@H](Cc1ccccc1)NC(=O)[C@H](Cc1c[nH]c2ccccc12)NC(=O)[C@@H](NC(=O)[C@H](CCCCN)NC(=O)[C@@H](NC(=O)[C@H](CCC(N)=O)NC(=O)[C@H](CCCNC(=N)N)NC(C)=O)[C@@H](C)CC)[C@@H](C)CC)C(=O)N[C@@H](CCC(=O)O)C(=O)N[C@H](C(=O)N[C@@H](CC(=O)O)C(=O)N[C@H](C(=O)O)C(C)C)[C@@H](C)O` [Compound 46], the half-life came to 1.57 ± 0.133 h.

With `CC[C@H](C)[C@H](NC(=O)CCOCCOCCN(CCOCCOCCC(=O)N[C@H](C(=O)N[C@@H](CCC(=O)O)C(=O)N[C@H](C(=O)N[C@@H](CC(=O)O)C(=O)N[C@H](C(=O)O)C(C)C)[C@@H](C)O)[C@@H](C)CC)C(=O)[C@H](CO)NC(=O)[C@H](CCC(=O)O)NC(=O)[C@H](CCCNC(=N)N)NC(=O)[C@H](CCCNC(=N)N)NC(=O)[C@H](CCCNC(=N)N)NC(=O)[C@H](CCCCN)NC(=O)[C@H](CCCCN)NC(=O)[C@H](CCCNC(=N)N)NC(=O)[C@H](CO)NC(=O)[C@H](CCC(=O)O)NC(=O)[C@H](CCCNC(=N)N)NC(=O)[C@H](CCCNC(=N)N)NC(=O)[C@H](CCCNC(=N)N)NC(=O)[C@H](CCCCN)NC(=O)[C@H](CCCCN)NC(=O)[C@H](CCCNC(=N)N)NC(C)=O)C(=O)N[C@@H](CCC(=O)O)C(=O)N[C@H](C(=O)N[C@@H](CC(=O)O)C(=O)N[C@H](C(=O)O)C(C)C)[C@@H](C)O` [Compound 50], the half-life at 100 μM was 2.82 ± 0.333 h.

Staying with this data set, now noted: isolated enzyme plasmin; read-out: T1/2.
For the compound `CC[C@H](C)[C@H](NC(=O)CCOCCOCCN(CCOCCOCCC(=O)N[C@H](C(=O)N[C@@H](CCC(=O)O)C(=O)N[C@H](C(=O)N[C@@H](CC(=O)O)C(=O)N[C@H](C(=O)O)C(C)C)[C@@H](C)O)[C@@H](C)CC)C(=O)[C@H](CCCNC(=N)N)NC(=O)[C@H](CCCNC(=N)N)NC(=O)[C@H](CCCNC(=N)N)NC(=O)[C@H](CCC(N)=O)NC(=O)[C@H](CCCNC(=N)N)NC(=O)[C@H](CCCNC(=N)N)NC(=O)[C@H](CCCCN)NC(=O)[C@H](CCCCN)NC(=O)[C@H](CCCNC(=N)N)NC(=O)CNC(=O)[C@H](Cc1ccc(O)cc1)NC(C)=O)C(=O)N[C@@H](CCC(=O)O)C(=O)N[C@H](C(=O)N[C@@H](CC(=O)O)C(=O)N[C@H](C(=O)O)C(C)C)[C@@H](C)O` [Compound 9], the half-life amounted to 3.82 ± 2.15 h.

For `CC[C@H](C)[C@H](NC(=O)CCOCCOCCN(CCOCCOCCC(=O)N[C@H](C(=O)N[C@@H](CCC(=O)O)C(=O)N[C@H](C(=O)N[C@@H](CC(=O)O)C(=O)N[C@H](C(=O)O)C(C)C)[C@@H](C)O)[C@@H](C)CC)C(=O)[C@@H](CCCNC(=N)N)NC(=O)[C@@H](CCCNC(=N)N)NC(=O)[C@@H](CCCNC(=N)N)NC(=O)[C@@H](CCC(N)=O)NC(=O)[C@@H](CCCNC(=N)N)NC(=O)[C@@H](CCCNC(=N)N)NC(=O)[C@@H](CCCCN)NC(=O)[C@@H](CCCCN)NC(=O)[C@@H](CCCNC(=N)N)NC(=O)CNC(=O)[C@@H](Cc1ccc(O)cc1)NC(C)=O)C(=O)N[C@@H](CCC(=O)O)C(=O)N[C@H](C(=O)N[C@@H](CC(=O)O)C(=O)N[C@H](C(=O)O)C(C)C)[C@@H](C)O` [Compound 38], the half-life turned out to be 24 h.

`CC[C@@H](C)[C@@H](NC(=O)[C@@H](CCCCN)NC(=O)[C@H](NC(=O)[C@@H](CCC(N)=O)NC(=O)[C@@H](CCCNC(=N)N)NC(C)=O)[C@H](C)CC)C(=O)N[C@H](Cc1c[nH]c2ccccc12)C(=O)N[C@H](Cc1ccccc1)C(=O)N[C@H](CCC(N)=O)C(=O)N[C@H](CC(N)=O)C(=O)N[C@H](CCCNC(=N)N)C(=O)N[C@H](CCCNC(=N)N)C(=O)N[C@H](CCSC)C(=O)N[C@H](CCCCN)C(=O)N[C@H](Cc1c[nH]c2ccccc12)C(=O)N[C@H](CCCCN)C(=O)N[C@H](CCCCN)C(=O)N(CCOCCOCCC(=O)N[C@H](C(=O)N[C@@H](CCC(=O)O)C(=O)N[C@H](C(=O)N[C@@H](CC(=O)O)C(=O)N[C@H](C(=O)O)C(C)C)[C@@H](C)O)[C@@H](C)CC)CCOCCOCCC(=O)N[C@H](C(=O)N[C@@H](CCC(=O)O)C(=O)N[C@H](C(=O)N[C@@H](CC(=O)O)C(=O)N[C@H](C(=O)O)C(C)C)[C@@H](C)O)[C@@H](C)CC` [Compound 48]: the half-life was found to be 24 h.

Staying with this data set, now noted: read-out: T1/2.
For `CC[C@H](C)[C@H](NC(=O)CCOCCOCCN(CCOCCOCCC(=O)N[C@H](C(=O)N[C@@H](CCC(=O)O)C(=O)N[C@H](C(=O)N[C@@H](CC(=O)O)C(=O)N[C@H](C(=O)O)C(C)C)[C@@H](C)O)[C@@H](C)CC)C(=O)[C@H](CCCNC(=N)N)NC(=O)[C@H](CCCNC(=N)N)NC(=O)[C@H](CCCNC(=N)N)NC(=O)[C@H](CCC(N)=O)NC(=O)[C@H](CCCNC(=N)N)NC(=O)[C@H](CCCNC(=N)N)NC(=O)[C@H](CCCCN)NC(=O)[C@H](CCCCN)NC(=O)[C@H](CCCNC(=N)N)NC(=O)CNC(=O)[C@H](Cc1ccc(O)cc1)NC(C)=O)C(=O)N[C@@H](CCC(=O)O)C(=O)N[C@H](C(=O)N[C@@H](CC(=O)O)C(=O)N[C@H](C(=O)O)C(C)C)[C@@H](C)O` [Compound 9], the half-life turned out to be 3.82 ± 2.15 h.

Source of the values: patent US20240245793A1, “PSD-95 INHIBITORS AND USES THEREOF” (priority 2021, published 2024).
